Measurements reported in patent US9340590B2 (priority 2011, dated 2016).
Like-named read-outs stand apart in the source and are kept apart here. Positions of bridges follow the written chain, without caps; N, C: chain ends. Non-standard residues stand in square brackets, D forms with d. Residues, ends and D or L forms follow the SMILES beside them. Cit = NC(=O)NCCC[C@H](N)C(=O)O

Columns and labels:
Assay in all cases: cell-based
[1] = molecular target: T1, hNav1.5 (Homo sapiens, UniProt Q14524); details: IonWorks Quattro; clamped to −110 mV, depolarized to −10 mV, 5 min after compound; n=2; read-out: IWQ Use Nav1.5
T1 sequence (Q14524 whole entry, looked up): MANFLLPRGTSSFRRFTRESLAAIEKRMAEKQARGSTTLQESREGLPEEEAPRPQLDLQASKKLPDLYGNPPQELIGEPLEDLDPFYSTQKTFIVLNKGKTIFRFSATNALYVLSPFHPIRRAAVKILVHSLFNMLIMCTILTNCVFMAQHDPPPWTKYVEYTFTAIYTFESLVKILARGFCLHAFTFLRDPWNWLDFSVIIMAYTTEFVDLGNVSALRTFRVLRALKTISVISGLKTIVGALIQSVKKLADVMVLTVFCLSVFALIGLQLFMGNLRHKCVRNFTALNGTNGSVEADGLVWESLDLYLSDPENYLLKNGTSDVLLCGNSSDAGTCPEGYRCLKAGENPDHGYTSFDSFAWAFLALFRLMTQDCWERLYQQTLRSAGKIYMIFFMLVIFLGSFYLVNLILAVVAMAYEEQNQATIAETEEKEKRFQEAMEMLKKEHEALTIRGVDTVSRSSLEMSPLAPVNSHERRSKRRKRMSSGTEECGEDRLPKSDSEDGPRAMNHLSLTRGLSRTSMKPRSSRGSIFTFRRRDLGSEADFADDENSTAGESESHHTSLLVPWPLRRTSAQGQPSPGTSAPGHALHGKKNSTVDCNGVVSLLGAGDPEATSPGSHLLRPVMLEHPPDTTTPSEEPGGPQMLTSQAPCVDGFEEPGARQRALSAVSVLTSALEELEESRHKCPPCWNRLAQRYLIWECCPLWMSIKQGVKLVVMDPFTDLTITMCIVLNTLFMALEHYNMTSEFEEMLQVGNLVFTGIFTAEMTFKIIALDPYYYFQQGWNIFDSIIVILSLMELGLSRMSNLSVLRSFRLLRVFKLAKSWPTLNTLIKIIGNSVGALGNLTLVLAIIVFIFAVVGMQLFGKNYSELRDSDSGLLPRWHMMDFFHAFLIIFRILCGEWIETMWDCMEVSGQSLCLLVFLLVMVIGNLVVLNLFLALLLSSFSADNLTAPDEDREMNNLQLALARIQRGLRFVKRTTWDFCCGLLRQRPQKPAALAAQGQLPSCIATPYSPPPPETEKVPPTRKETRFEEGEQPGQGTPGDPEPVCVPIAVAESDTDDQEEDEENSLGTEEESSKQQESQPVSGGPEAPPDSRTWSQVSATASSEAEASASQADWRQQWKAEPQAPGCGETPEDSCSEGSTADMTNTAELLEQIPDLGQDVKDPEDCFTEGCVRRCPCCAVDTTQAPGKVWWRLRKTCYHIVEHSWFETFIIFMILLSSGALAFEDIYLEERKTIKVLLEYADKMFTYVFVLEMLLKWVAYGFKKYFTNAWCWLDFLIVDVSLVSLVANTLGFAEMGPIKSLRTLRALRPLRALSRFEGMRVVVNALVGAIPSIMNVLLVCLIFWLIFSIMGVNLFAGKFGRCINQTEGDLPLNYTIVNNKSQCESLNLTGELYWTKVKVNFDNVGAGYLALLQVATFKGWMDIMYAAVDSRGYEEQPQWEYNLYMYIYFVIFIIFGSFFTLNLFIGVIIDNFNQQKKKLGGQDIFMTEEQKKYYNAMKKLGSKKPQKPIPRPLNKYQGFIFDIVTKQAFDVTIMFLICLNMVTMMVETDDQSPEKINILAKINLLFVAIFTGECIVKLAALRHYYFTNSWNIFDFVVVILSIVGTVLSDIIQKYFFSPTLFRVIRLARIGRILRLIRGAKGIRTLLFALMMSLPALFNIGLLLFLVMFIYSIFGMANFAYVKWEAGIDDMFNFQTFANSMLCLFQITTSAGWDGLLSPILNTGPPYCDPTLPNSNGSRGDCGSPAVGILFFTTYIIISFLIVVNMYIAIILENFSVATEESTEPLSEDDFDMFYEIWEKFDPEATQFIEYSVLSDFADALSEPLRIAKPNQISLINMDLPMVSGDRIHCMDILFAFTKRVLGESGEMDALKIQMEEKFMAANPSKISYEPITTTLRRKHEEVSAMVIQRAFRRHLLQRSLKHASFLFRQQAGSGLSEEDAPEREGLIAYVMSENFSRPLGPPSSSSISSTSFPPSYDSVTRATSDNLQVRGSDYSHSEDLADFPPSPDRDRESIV

[2] = molecular target: hNav1.3 (Homo sapiens, UniProt Q9NY46); details: IonWorks Quattro; clamped to −110 mV, depolarized to −10 mV, 5 min after compound; n=2; read-out: IWQ Use Nav1.3
[3] = molecular target: hNav1.7 (Homo sapiens, UniProt Q15858); details: Nav1.7 Use IC50
hNav1.7, sequence (Q15858 whole entry, looked up): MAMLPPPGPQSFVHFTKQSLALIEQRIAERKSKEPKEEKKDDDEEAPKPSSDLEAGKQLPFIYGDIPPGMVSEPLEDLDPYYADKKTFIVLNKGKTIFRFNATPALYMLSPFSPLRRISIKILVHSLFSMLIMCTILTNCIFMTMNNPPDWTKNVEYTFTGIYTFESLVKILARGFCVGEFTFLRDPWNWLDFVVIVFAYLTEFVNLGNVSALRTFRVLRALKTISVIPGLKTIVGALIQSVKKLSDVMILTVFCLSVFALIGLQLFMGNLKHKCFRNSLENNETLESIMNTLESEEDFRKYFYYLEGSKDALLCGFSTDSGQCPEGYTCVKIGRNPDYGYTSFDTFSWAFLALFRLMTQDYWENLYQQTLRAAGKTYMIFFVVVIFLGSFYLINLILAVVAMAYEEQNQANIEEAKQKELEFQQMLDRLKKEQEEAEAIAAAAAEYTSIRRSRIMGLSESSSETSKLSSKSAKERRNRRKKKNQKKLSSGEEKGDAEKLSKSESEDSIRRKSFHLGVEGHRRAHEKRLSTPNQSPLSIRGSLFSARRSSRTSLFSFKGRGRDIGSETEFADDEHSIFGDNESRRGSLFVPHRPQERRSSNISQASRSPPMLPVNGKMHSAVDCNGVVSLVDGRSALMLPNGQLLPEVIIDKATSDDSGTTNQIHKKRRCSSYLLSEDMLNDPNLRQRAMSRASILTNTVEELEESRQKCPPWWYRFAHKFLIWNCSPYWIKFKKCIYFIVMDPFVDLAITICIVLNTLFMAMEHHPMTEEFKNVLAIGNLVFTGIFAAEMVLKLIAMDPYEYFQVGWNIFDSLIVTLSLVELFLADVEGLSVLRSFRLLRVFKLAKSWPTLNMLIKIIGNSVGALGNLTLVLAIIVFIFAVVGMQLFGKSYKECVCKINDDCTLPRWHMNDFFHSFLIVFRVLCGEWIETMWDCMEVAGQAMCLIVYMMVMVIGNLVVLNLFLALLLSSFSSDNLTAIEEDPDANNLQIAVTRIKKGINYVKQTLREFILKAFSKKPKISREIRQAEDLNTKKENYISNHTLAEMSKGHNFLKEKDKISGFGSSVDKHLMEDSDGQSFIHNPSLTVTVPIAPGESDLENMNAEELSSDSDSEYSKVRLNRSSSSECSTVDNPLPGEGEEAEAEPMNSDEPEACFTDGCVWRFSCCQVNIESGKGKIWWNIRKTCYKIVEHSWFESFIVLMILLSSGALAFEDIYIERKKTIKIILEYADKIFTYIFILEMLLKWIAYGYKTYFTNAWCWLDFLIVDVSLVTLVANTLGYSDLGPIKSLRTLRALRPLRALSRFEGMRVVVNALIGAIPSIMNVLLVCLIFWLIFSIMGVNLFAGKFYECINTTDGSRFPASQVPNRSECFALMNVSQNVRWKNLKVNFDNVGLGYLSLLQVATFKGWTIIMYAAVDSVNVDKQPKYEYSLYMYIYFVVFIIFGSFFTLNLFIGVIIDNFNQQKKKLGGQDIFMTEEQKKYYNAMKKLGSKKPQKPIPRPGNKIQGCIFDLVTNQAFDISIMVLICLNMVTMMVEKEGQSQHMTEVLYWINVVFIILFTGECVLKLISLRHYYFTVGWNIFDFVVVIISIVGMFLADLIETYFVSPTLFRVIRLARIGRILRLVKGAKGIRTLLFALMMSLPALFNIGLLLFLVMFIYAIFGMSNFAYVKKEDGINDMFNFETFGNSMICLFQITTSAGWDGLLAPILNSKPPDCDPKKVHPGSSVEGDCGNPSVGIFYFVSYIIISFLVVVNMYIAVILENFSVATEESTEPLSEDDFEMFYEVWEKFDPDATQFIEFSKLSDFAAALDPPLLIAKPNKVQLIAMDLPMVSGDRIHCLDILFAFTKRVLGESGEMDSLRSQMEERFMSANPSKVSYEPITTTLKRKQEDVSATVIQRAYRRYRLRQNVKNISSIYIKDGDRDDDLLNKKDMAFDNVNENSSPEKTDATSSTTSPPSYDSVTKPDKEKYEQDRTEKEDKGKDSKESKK

[4] = molecular target: T1, hNav1.5

Row | SMILES | IC50 [1] [nM] | IC50 [2] [nM] | IC50 [3] [nM] | IC50 [4] [nM]
1 | CC[C@H](C)[C@@H]1NC(=O)[C@@H]2CSSC[C@@H]3NC(=O)[C@H](C(C)C)NC(=O)[C@H](CC(C)C)NC(=O)[C@H](CC(N)=O)NC(=O)[C@@H]4CCCN4C(=O)[C@H](CCCNC(=N)N)NC(=O)[C@H](CSSC[C@H](NC(=O)[C@@H](N)CC(=O)O)C(=O)N[C@@H](CCC(=O)O)C(=O)NCC(=O)N[C@@H](Cc4ccccc4)C(=O)N[C@@H](CCSC)C(=O)N[C@@H](CCCNC(=N)N)C(=O)N[C@@H](CCCCN)C(=O)N2)NC(=O)[C@H](CSSC[C@@H](C(=O)N[C@@H](CCCCN)C(=O)N[C@@H](Cc2ccc(O)cc2)C(=O)N[C@H](C(=O)N[C@@H](Cc2ccccc2)C(N)=O)C(C)C)NC(=O)[C@H](Cc2c[nH]c4ccccc24)NC(=O)[C@H](CCCCN)NC(=O)[C@H](Cc2cnc[nH]2)NC(=O)[C@H]([C@@H](C)O)NC(=O)[C@H](CCCNC(=N)N)NC(=O)[C@H](CO)NC3=O)NC(=O)[C@H](CCCCN)NC(=O)[C@H](CC(=O)O)NC(=O)[C@H](CC(N)=O)NC(=O)[C@H](CC(=O)O)NC(=O)[C@@H]2CCCN2C1=O [SEQ ID NO: 19] (H-DCEGFMRKCIPDNDKCCRPNLVCSRTHKWCKYVF-NH2; disulfide 2-17, 9-23, 16-30) | 10500 | 830 | 41 | > 10000
2 | CSCC[C@@H]1NC(=O)[C@H](C(C)C)NC(=O)CNC(=O)[C@H](CC(C)C)NC(=O)[C@@H](NC(=O)[C@@H](N)CC(=O)O)CSSC[C@@H]2NC(=O)[C@@H]3CSSC[C@@H](C(=O)N[C@@H](CCCCN)C(=O)N[C@@H](Cc4ccc(O)cc4)C(=O)N[C@H](C(=O)N[C@@H](Cc4ccccc4)C(N)=O)C(C)C)NC(=O)[C@H](Cc4c[nH]c5ccccc45)NC(=O)[C@H](CCCCN)NC(=O)[C@H](Cc4c[nH]cn4)NC(=O)[C@H]([C@@H](C)O)NC(=O)[C@H](CCCNC(=N)N)NC(=O)[C@H](CO)NC(=O)[C@H](CSSC[C@H](NC(=O)[C@H](CCCCN)NC(=O)[C@H](CCCNC(=N)N)NC1=O)C(=O)N[C@@H](CC(=O)O)C(=O)N1CCC[C@H]1C(=O)N[C@@H](CCC(=O)O)C(=O)N[C@@H](CC(N)=O)C(=O)N[C@@H](CC(=O)O)C(=O)N[C@@H](CCCCN)C(=O)N3)NC(=O)[C@H](C(C)C)NC(=O)[C@H](CC(C)C)NC(=O)[C@H](CC(N)=O)NC(=O)[C@@H]1CCCN1C(=O)[C@H](CCCNC(=N)N)NC2=O [[Val5;Asp10;Glu12]GpTx-1(1-34)] (H-DCLGVMRKCDPENDKCCRPNLVCSRTHKWCKYVF-NH2; disulfide 2-17, 9-23, 16-30) |  |  | 116 | > 10000
3 | CSCC[C@@H]1NC(=O)[C@H](C(C)C)NC(=O)CNC(=O)[C@H](CC(C)C)NC(=O)[C@@H](NC(=O)[C@@H](N)CC(=O)O)CSSC[C@@H]2NC(=O)[C@@H]3CSSC[C@@H](C(=O)N[C@@H](CCCCN)C(=O)N[C@@H](Cc4ccc(O)cc4)C(=O)N[C@H](C(=O)N[C@@H](Cc4ccccc4)C(N)=O)C(C)C)NC(=O)[C@H](Cc4c[nH]c5ccccc45)NC(=O)[C@H](CCCCN)NC(=O)[C@H](Cc4c[nH]cn4)NC(=O)[C@H]([C@@H](C)O)NC(=O)[C@H](CCCNC(=N)N)NC(=O)[C@H](CO)NC(=O)[C@H](CSSC[C@H](NC(=O)[C@H](CCCCN)NC(=O)[C@H](CCCNC(=N)N)NC1=O)C(=O)N[C@@H](CC(=O)O)C(=O)N1CCC[C@H]1C(=O)N[C@@H](CC(=O)O)C(=O)N[C@@H](CC(N)=O)C(=O)N[C@@H](CC(=O)O)C(=O)N[C@@H](CCCCN)C(=O)N3)NC(=O)[C@H](C(C)C)NC(=O)[C@H](CC(C)C)NC(=O)[C@H](CC(N)=O)NC(=O)[C@@H]1CCCN1C(=O)[C@H](CCCNC(=N)N)NC2=O [[Val5;Asp10]GpTx-1(1-34)] (H-DCLGVMRKCDPDNDKCCRPNLVCSRTHKWCKYVF-NH2; disulfide 2-17, 9-23, 16-30) |  |  | 174 | > 10000
4 | CC[C@H](C)[C@@H]1NC(=O)[C@@H]2CSSC[C@@H]3NC(=O)[C@H](C(C)C)NC(=O)[C@H](CC(C)C)NC(=O)[C@H](CC(N)=O)NC(=O)[C@@H]4CCCN4C(=O)[C@H](CCCNC(=N)N)NC(=O)[C@H](CSSC[C@H](NC(=O)[C@@H](N)CC(=O)O)C(=O)N[C@@H](CC(C)C)C(=O)NCC(=O)N[C@@H](C(C)C)C(=O)N[C@@H](CCSC)C(=O)N[C@@H](CCCNC(=N)N)C(=O)N[C@@H](CCCCN)C(=O)N2)NC(=O)[C@H](CSSC[C@@H](C(=O)N[C@@H](CCCCN)C(=O)N[C@@H](Cc2ccc(O)cc2)C(=O)N[C@H](C(=O)N[C@@H](Cc2ccccc2)C(N)=O)C(C)C)NC(=O)[C@H](Cc2c[nH]c4ccccc24)NC(=O)[C@H](CCCCN)NC(=O)[C@H](Cc2c[nH]cn2)NC(=O)[C@H]([C@@H](C)O)NC(=O)[C@H](CCCNC(N)=O)NC(=O)[C@H](CO)NC3=O)NC(=O)[C@H](CCCCN)NC(=O)[C@H](CC(=O)O)NC(=O)[C@H](CC(N)=O)NC(=O)[C@H](CC(=O)O)NC(=O)[C@@H]2CCCN2C1=O [[Val5;Cit25]GpTx-1(1-34)] (H-DCLGVMRKCIPDNDKCCRPNLVCS[Cit]THKWCKYVF-NH2; disulfide 2-17, 9-23, 16-30) |  |  | 28 | > 10000
5 | CC[C@H](C)[C@@H]1NC(=O)[C@@H]2CSSC[C@@H]3NC(=O)[C@H](C(C)C)NC(=O)[C@H](CC(C)C)NC(=O)[C@H](CC(N)=O)NC(=O)[C@@H]4CCCN4C(=O)[C@H](CCCNC(=N)N)NC(=O)[C@H](CSSC[C@H](NC(=O)[C@@H](N)CC(=O)O)C(=O)N[C@@H](CC(C)C)C(=O)NCC(=O)N[C@@H](C(C)C)C(=O)N[C@@H](CCSC)C(=O)N[C@@H](CCCNC(=N)N)C(=O)N[C@@H](CCCCN)C(=O)N2)NC(=O)[C@H](CSSC[C@@H](C(=O)N[C@@H](CCCCN)C(=O)N[C@@H](Cc2ccc(O)cc2)C(=O)N[C@H](C(=O)N[C@@H](Cc2ccccc2)C(N)=O)C(C)C)NC(=O)[C@H](Cc2c[nH]c4ccccc24)NC(=O)[C@H](CCCCN)NC(=O)[C@H](Cc2c[nH]cn2)NC(=O)[C@H]([C@@H](C)O)NC(=O)[C@H](CCCNC(=N)N)NC(=O)[C@H](CO)NC3=O)NC(=O)[C@H](CCCCN)NC(=O)[C@H](CC(=O)O)NC(=O)[C@H](CC(N)=O)NC(=O)[C@H](CCC(=O)O)NC(=O)[C@@H]2CCCN2C1=O [[Val5;Glu12]GpTx-1(1-34)] (H-DCLGVMRKCIPENDKCCRPNLVCSRTHKWCKYVF-NH2; disulfide 2-17, 9-23, 16-30) |  |  | 74 | > 10000
6 | CC[C@H](C)[C@@H]1NC(=O)[C@@H]2CSSC[C@@H]3NC(=O)[C@H](C(C)C)NC(=O)[C@H](CC(C)C)NC(=O)[C@H](CC(N)=O)NC(=O)[C@@H]4CCCN4C(=O)[C@H](CCCNC(=N)N)NC(=O)[C@H](CSSC[C@H](NC(=O)[C@@H](N)CC(=O)O)C(=O)N[C@@H](CC(C)C)C(=O)NCC(=O)N[C@@H](C(C)C)C(=O)N[C@@H](CCSC)C(=O)N[C@@H](CCCNC(=N)N)C(=O)N[C@@H](CCCCN)C(=O)N2)NC(=O)[C@H](CSSC[C@@H](C(=O)N[C@@H](CCCCN)C(=O)N[C@@H](Cc2ccc(O)cc2)C(=O)N[C@H](C(=O)N[C@@H](Cc2ccccc2)C(N)=O)C(C)C)NC(=O)[C@H](Cc2c[nH]c4ccccc24)NC(=O)[C@H](CCC(=O)O)NC(=O)[C@H](Cc2c[nH]cn2)NC(=O)[C@H]([C@@H](C)O)NC(=O)[C@H](CCCNC(=N)N)NC(=O)[C@H](CO)NC3=O)NC(=O)[C@H](CCCCN)NC(=O)[C@H](CC(=O)O)NC(=O)[C@H](CC(N)=O)NC(=O)[C@H](CC(=O)O)NC(=O)[C@@H]2CCCN2C1=O [[Val5;Glu28]GpTx-1(1-34)] (H-DCLGVMRKCIPDNDKCCRPNLVCSRTHEWCKYVF-NH2; disulfide 2-17, 9-23, 16-30) |  |  | 29 | > 10000
7 | CC[C@H](C)[C@@H]1NC(=O)[C@@H]2CSSC[C@@H]3NC(=O)[C@H](C(C)C)NC(=O)[C@H](CC(C)C)NC(=O)[C@H](CC(N)=O)NC(=O)[C@@H]4CCCN4C(=O)[C@H](CCCNC(=N)N)NC(=O)[C@H](CSSC[C@H](NC(=O)[C@@H](N)CC(=O)O)C(=O)N[C@@H](CC(C)C)C(=O)NCC(=O)N[C@@H](C(C)C)C(=O)N[C@@H](CC(C)C)C(=O)N[C@@H](CCCNC(=N)N)C(=O)N[C@@H](CCCCN)C(=O)N2)NC(=O)[C@H](CSSC[C@@H](C(=O)N[C@@H](CCCCN)C(=O)N[C@@H](Cc2ccc(O)cc2)C(=O)N[C@H](C(=O)N[C@@H](Cc2ccccc2)C(N)=O)C(C)C)NC(=O)[C@H](Cc2c[nH]c4ccccc24)NC(=O)[C@H](CCC(=O)O)NC(=O)[C@H](Cc2c[nH]cn2)NC(=O)[C@H]([C@@H](C)O)NC(=O)[C@H](CCCNC(=N)N)NC(=O)[C@H](CO)NC3=O)NC(=O)[C@H](CCCCN)NC(=O)[C@H](CC(=O)O)NC(=O)[C@H](CC(N)=O)NC(=O)[C@H](CC(=O)O)NC(=O)[C@@H]2CCCN2C1=O [[Val5;Leu6;Glu28]GpTx-1(1-34)] (H-DCLGVLRKCIPDNDKCCRPNLVCSRTHEWCKYVF-NH2; disulfide 2-17, 9-23, 16-30) |  |  | 86 | > 10000
8 | CC[C@H](C)[C@@H]1NC(=O)[C@@H]2CSSC[C@@H]3NC(=O)[C@H](C(C)C)NC(=O)[C@H](CC(C)C)NC(=O)[C@H](CC(N)=O)NC(=O)[C@@H]4CCCN4C(=O)[C@H](CCCNC(=N)N)NC(=O)[C@H](CSSC[C@H](NC(=O)[C@@H](N)CC(=O)O)C(=O)N[C@@H](CC(C)C)C(=O)NCC(=O)N[C@@H](C(C)C)C(=O)N[C@@H](CC(C)C)C(=O)N[C@@H](CCCNC(=N)N)C(=O)N[C@@H](CCCCN)C(=O)N2)NC(=O)[C@H](CSSC[C@@H](C(=O)N[C@@H](CCCCN)C(=O)N[C@@H](Cc2ccc(O)cc2)C(=O)N[C@H](C(=O)N[C@@H](Cc2ccccc2)C(N)=O)C(C)C)NC(=O)[C@H](Cc2c[nH]c4ccccc24)NC(=O)[C@H](CCCCN)NC(=O)[C@H](Cc2c[nH]cn2)NC(=O)[C@H]([C@@H](C)O)NC(=O)[C@H](CCCNC(=N)N)NC(=O)[C@H](CO)NC3=O)NC(=O)[C@H](CCCCN)NC(=O)[C@H](CC(=O)O)NC(=O)[C@H](CC(N)=O)NC(=O)[C@H](CC(=O)O)NC(=O)[C@@H]2CCCN2C1=O [[Val5;Leu6]GpTx-1(1-34)] (H-DCLGVLRKCIPDNDKCCRPNLVCSRTHKWCKYVF-NH2; disulfide 2-17, 9-23, 16-30) |  |  | 200 | > 10000
